Test results as given in ChEMBL document CHEMBL4190166 (Medchemcomm, 2016).

Legend:
[1] = biological target: T1, Protein cereblon/Bromodomain-containing protein 4 (Homo sapiens, UniProt O60885+Q96SW2); experiment: Proteolysis targeting chimera activity in human BL cells assessed as induction of cereblon-mediated delivery of BRD4 for protein degradation by proteasome by immuno blot analysis; type: cell-based
[2] = biological target: von Hippel-Lindau disease tumor suppressor/Bromodomain-containing protein 2 (Homo sapiens, UniProt P25440+P40337); experiment: Proteolysis targeting chimera activity in human 22Rv1 cells assessed as induction of VHL-mediated delivery of BRD2 for protein degradation by proteasome by measuring drug level causing 50% substrate depletion incubated for 16 hrs by Western blot method; type: cell-based
VCaP = experiment: Antitumor activity against human VCaP cells xenografted in SCID mouse assessed as tumor growth inhibition at 10 mg/kg, sc administered every 3 days for 16 days relative to control; type: functional; details: read-out: TGI
[3] = biological target: Protein cereblon/Tyrosine-protein kinase ABL1/Breakpoint cluster region protein (Homo sapiens) (UniProt P00519+P11274+Q96SW2); experiment: Proteolysis targeting chimera activity in human K562 cells assessed as induction of cereblon-mediated delivery of BCR-ABL for protein degradation by proteasome at 1 uM after 24 hrs by immuno blot analysis relative to control; type: cell-based
[4] = biological target: Protein cereblon/Tyrosine-protein kinase ABL1 (Homo sapiens) (UniProt P00519+Q96SW2); experiment: Proteolysis targeting chimera activity in human K562 cells assessed as induction of cereblon-mediated delivery of ABL for protein degradation by proteasome at 1 uM after 24 hrs by immuno blot analysis relative to control; type: cell-based
[5] = biological target: Protein cereblon/Peptidyl-prolyl cis-trans isomerase FKBP1A (Homo sapiens, UniProt P62942+Q96SW2); experiment: Proteolysis targeting chimera activity in human MV4-11 cells assessed as induction of cereblon-mediated delivery of FKBP12 for protein degradation by proteasome incubated for 18 hrs by immuno blot analysis; type: cell-based
[6] = biological target: T1, Protein cereblon/Bromodomain-containing protein 4; experiment: Proteolysis targeting chimera activity in human MV4-11 cells assessed as induction of cereblon-mediated delivery of BRD4 for protein degradation by proteasome at 100 nM incubated for 18 hrs by immuno blot analysis; type: cell-based
Kidney = experiment: In vivo induction of ERRalpha degradation in CD-1 mouse kidney at 100 mg/kg, ip every 8 hrs measured 5 hrs post last dose by LC/MS analysis relative to control; type: functional
Heart = experiment: In vivo induction of ERRalpha degradation in CD-1 mouse heart at 100 mg/kg, ip every 8 hrs measured 5 hrs post last dose by LC/MS analysis relative to control; type: functional
[7] = biological target: von Hippel-Lindau disease tumor suppressor/Steroid hormone receptor ERR1 (Homo sapiens, UniProt P11474+P40337); experiment: Proteolysis targeting chimera activity in human MCF7 cells assessed as induction of VHL-mediated delivery of ERRalpha for protein degradation by proteasome by measuring drug level causing 50% substrate depletion incubated for 24 hrs by Western blot method; type: cell-based
MDA-MB-231 = experiment: In vivo induction of ERRalpha degradation in human MDA-MB-231 cells xenografted in […] mouse at 100 mg/kg, ip every 8 hrs measured 5 hrs post last dose by LC/MS analysis relative to control; type: functional

T1 sequence (Q96SW2 whole entry, looked up, other chains not shown): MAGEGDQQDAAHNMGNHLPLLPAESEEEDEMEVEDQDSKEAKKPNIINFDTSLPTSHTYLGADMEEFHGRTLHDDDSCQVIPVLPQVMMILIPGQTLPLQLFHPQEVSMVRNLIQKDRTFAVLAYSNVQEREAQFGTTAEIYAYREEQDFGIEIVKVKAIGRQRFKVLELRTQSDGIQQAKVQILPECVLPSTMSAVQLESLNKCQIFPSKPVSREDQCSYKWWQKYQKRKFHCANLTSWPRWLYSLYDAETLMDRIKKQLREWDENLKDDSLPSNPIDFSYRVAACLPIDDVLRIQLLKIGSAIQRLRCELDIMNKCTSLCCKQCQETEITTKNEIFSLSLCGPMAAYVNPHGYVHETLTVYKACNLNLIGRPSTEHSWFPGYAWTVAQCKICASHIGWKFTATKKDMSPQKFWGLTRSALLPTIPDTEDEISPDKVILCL
Protein cereblon/Tyrosine-protein kinase ABL1/Breakpoint cluster region protein (Homo sapiens), sequence (P00519 whole entry, looked up): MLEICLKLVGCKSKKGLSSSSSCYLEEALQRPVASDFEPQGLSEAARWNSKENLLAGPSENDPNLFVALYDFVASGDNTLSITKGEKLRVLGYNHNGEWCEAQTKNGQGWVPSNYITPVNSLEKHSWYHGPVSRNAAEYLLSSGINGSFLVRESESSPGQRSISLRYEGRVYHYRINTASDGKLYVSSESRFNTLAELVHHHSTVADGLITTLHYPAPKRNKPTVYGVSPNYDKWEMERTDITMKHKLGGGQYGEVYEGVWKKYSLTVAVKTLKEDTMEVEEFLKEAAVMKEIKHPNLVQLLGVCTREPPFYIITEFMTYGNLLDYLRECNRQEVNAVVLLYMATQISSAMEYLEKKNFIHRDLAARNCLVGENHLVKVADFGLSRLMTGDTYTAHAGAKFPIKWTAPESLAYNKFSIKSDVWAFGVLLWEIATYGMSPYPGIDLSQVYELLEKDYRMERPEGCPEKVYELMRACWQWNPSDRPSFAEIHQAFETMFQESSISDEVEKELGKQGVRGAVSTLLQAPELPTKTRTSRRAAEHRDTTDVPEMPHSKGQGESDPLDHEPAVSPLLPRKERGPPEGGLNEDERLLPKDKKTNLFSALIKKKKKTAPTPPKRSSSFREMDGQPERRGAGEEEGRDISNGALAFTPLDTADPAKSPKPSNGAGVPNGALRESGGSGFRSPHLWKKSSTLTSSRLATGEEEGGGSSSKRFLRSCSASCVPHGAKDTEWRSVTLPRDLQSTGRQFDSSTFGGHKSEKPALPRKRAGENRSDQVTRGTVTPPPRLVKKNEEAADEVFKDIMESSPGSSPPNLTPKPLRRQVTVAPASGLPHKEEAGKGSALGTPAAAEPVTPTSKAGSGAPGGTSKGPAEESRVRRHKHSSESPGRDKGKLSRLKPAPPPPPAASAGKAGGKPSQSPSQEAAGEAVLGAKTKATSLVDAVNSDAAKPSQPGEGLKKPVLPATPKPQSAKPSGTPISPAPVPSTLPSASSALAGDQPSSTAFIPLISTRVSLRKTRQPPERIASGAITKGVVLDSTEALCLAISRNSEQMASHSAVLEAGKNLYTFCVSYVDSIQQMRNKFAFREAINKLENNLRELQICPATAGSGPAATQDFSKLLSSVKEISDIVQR
Protein cereblon/Tyrosine-protein kinase ABL1/Breakpoint cluster region protein (Homo sapiens), sequence (P11274 whole entry, looked up): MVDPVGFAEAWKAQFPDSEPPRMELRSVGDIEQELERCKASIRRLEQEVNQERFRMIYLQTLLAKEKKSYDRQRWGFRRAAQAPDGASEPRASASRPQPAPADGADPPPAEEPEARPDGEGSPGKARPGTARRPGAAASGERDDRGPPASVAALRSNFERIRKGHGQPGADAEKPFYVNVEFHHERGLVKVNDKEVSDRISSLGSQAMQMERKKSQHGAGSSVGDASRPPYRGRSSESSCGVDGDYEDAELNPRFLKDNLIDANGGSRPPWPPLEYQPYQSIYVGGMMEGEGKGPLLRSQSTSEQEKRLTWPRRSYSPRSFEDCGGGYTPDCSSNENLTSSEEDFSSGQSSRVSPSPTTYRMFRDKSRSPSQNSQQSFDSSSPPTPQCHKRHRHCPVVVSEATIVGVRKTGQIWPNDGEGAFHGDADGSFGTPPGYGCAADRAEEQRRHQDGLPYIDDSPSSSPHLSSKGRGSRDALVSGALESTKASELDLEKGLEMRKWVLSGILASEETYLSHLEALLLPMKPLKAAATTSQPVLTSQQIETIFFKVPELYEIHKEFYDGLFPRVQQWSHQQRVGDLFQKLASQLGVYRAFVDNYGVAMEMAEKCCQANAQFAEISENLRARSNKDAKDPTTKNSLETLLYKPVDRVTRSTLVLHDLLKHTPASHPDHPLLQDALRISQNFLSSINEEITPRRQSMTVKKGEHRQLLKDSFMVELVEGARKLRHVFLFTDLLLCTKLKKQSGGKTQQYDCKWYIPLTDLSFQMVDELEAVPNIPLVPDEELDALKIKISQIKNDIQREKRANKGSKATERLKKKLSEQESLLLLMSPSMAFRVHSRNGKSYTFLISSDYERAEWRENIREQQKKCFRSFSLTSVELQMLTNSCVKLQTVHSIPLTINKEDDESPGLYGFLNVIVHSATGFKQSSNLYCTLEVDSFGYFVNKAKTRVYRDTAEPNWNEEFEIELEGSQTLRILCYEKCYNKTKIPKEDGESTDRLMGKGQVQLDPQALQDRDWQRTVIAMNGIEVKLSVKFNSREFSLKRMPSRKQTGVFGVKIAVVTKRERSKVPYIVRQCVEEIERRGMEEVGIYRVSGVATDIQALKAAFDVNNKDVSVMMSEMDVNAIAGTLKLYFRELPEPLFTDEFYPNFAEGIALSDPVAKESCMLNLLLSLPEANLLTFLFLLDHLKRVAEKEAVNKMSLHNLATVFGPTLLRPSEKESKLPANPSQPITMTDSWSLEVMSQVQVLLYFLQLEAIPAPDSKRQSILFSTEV
Protein cereblon/Tyrosine-protein kinase ABL1/Breakpoint cluster region protein (Homo sapiens), sequence (Q96SW2 whole entry, looked up): as the sequence (Q96SW2 whole entry, looked up, other chains not shown) above
Protein cereblon/Tyrosine-protein kinase ABL1 (Homo sapiens), sequence (P00519 whole entry, looked up): as the sequence (P00519 whole entry, looked up) above
Protein cereblon/Tyrosine-protein kinase ABL1 (Homo sapiens), sequence (Q96SW2 whole entry, looked up): as the sequence (Q96SW2 whole entry, looked up, other chains not shown) above

Cc1sc2c(c1C)C(c1ccc(Cl)cc1)=C[C@@H](CC(=O)Nc1ccc(OCCOCCOCCOCCNc3cccc4c3C(=O)N(C3CCC(=O)NC3=O)C4=O)cc1)c1nnc(C)n1-2 (stereo partly drawn)
IC50 [1]: < 0.001 µM

Cc1ncsc1-c1ccc([C@H](C)NC(=O)[C@@H]2C[C@@H](O)CN2C(=O)[C@@H](NC(=O)COCCCOCCNC(=O)C[C@@H]2N=C(c3ccc(Cl)cc3)c3c(sc(C)c3C)-n3c(C)nnc32)C(C)(C)C)cc1
IC50 [2]: < 0.005 µM
inhibition in vivo at 10 mg/kg (VCaP): 60%

COc1cc(Nc2c(C#N)cnc3cc(OCCCN4CCN(CCCCCCOCCOCCOCCCCCc5cccc6c5C(=O)N(C5CCC(=O)NC5=O)C6=O)CC4)c(OC)cc23)c(Cl)cc1Cl (stereo not drawn)
Imax [3]: 80%
Imax [4]: 90%

CCC(C)(C)C(=O)C(=O)N1CCCC[C@H]1C(=O)O[C@H](CCc1ccc(OC)c(OC)c1)c1cccc(NC(=O)CCC(=O)NCCNC(=O)COc2cccc3c2C(=O)N(C2CCC(=O)NC2=O)C3=O)c1 (stereo partly drawn)
IC50 [5]: 0.01 µM

Cc1sc2c(c1C)C(c1ccc(Cl)cc1)=C[C@@H](CC(=O)NCCCCNC(=O)COc1cccc3c1C(=O)N(C1CCC(=O)NC1=O)C3=O)c1nnc(C)n1-2 (stereo partly drawn)
Imax [6]: > 85%

COc1cc(/C=C2\SC(=O)N(CCOCCC(=O)N[C@H](C(=O)N3C[C@H](O)C[C@H]3C(=O)NCc3ccc(-c4scnc4C)cc3)C(C)(C)C)C2=O)ccc1Oc1ccc(C#N)cc1C(F)(F)F
Activity (Kidney): 40%
Activity (Heart): 40%
IC50 [7]: 0.1 µM
Activity (MDA-MB-231): 40%

Cc1nc(Nc2ncc(C(=O)Nc3c(C)cccc3Cl)s2)cc(N2CCN(CCCCCCOCCOCCOCCCCCc3cccc4c3C(=O)N(C3CCC(=O)NC3=O)C4=O)CC2)n1 (stereo not drawn)
Imax [3]: > 60%
Imax [4]: > 85%
